Source: ChEMBL document CHEMBL3885861, “Open TG-GATES”

Species on record: Rattus norvegicus
Assay: Open TG-GATES - Regimen: Single
Type: toxicity, organism-based, Sprague-Dawley
Parameters: regimen Single, gender Male, age 6 weeks
Details: in vivo, po, 0 mg/kg, route gavage, dose level Control; for APTT / Bas / Eos / Fbg / Hb / Ht / Lym / MCH / MCHC / MCV / Mono / Neu / PT / Plat / RBC / Ret / WBC: tissue Blood; for KIDNEY_L / KIDNEY_R / KIDNEY_TOTAL: tissue Kidney; for LIVER: tissue Liver; for A/G / ALP / ALT / AST / BUN / CRE / Ca / Cl / DBIL / GLC / IP / K / LDH / Na / PL / RALB / TBIL / TC / TG / TP / gamma-GTP: tissue Plasma

Compound: CC(C)NNC(=O)c1ccncc1 [IPRONIAZID]
- TERMINAL_BW (3 h): 208.3 g
- APTT (3 h): 21.1 s
- Bas (3 h): 0%
- Eos (3 h): 0.6%
- Fbg (3 h): 318.8 mg/dL
- Hb (3 h): 13.3 g/dL
- Ht (3 h): 38.7%
- Lym (3 h): 82.2%
- MCH (3 h): 21.3 pg
- MCHC (3 h): 34.3%
- MCV (3 h): 62.1 fL
- Mono (3 h): 1.6%
- Neu (3 h): 15%
- PT (3 h): 16.4 s
- Plat (3 h): 108.8 x10_4/uL
- RBC (3 h): 624.6 x10_4/ul
- Ret (3 h): 7.2%
- WBC (3 h): 72.6 x10_2/uL
- KIDNEY_L (3 h): 0.9 g
- KIDNEY_R (3 h): 0.9 g
- KIDNEY_TOTAL (3 h): 1.9 g
- LIVER (3 h): 9.7 g
- A/G (3 h): 1.3
- ALP (3 h): 1798.2 IU/L
- ALT (3 h): 41.4 IU/L
- AST (3 h): 78.6 IU/L
- BUN (3 h): 13.6 mg/dL
- CRE (3 h): 0.2 mg/dL
- Ca (3 h): 10.8 mg/dL
- Cl (3 h): 107.6 meq/L
- DBIL (3 h): 0.004 mg/dL
- GLC (3 h): 190.2 mg/dL
- IP (3 h): 8 mg/dL
- K (3 h): 4.1 meq/L
- LDH (3 h): 225 IU/L
- Na (3 h): 142.4 meq/L
- PL (3 h): 136.4 mg/dL
- RALB (3 h): 3.1 g/dL
- TBIL (3 h): 0.022 mg/dL
- TC (3 h): 75.4 mg/dL
- TG (3 h): 53.2 mg/dL
- TP (3 h): 5.5 g/dL
- gamma-GTP (3 h): 1.2 IU/L
- TERMINAL_BW (6 h): 208.9 g
- APTT (6 h): 23.2 s
- Bas (6 h): 0%
- Eos (6 h): 0.8%
- Fbg (6 h): 305.8 mg/dL
- Hb (6 h): 13.3 g/dL
- Ht (6 h): 38.6%
- Lym (6 h): 79.4%
- MCH (6 h): 21.5 pg
- MCHC (6 h): 34.3%
- MCV (6 h): 62.5 fL
- Mono (6 h): 2.4%
- Neu (6 h): 16.6%
- PT (6 h): 15.6 s
- Plat (6 h): 115.7 x10_4/uL
- RBC (6 h): 618.8 x10_4/ul
- Ret (6 h): 8.7%
- WBC (6 h): 96.2 x10_2/uL
- KIDNEY_L (6 h): 0.9 g
- KIDNEY_R (6 h): 1 g
- KIDNEY_TOTAL (6 h): 1.9 g
- LIVER (6 h): 9 g
- A/G (6 h): 1.3
- ALP (6 h): 1530.2 IU/L
- ALT (6 h): 38.6 IU/L
- AST (6 h): 71.6 IU/L
- BUN (6 h): 11.2 mg/dL
- CRE (6 h): 0.2 mg/dL
- Ca (6 h): 10.6 mg/dL
- Cl (6 h): 105.8 meq/L
- DBIL (6 h): 0.006 mg/dL
- GLC (6 h): 180 mg/dL
- IP (6 h): 9.3 mg/dL
- K (6 h): 4.3 meq/L
- LDH (6 h): 179.8 IU/L
- Na (6 h): 141.4 meq/L
- PL (6 h): 140.6 mg/dL
- RALB (6 h): 3 g/dL
- TBIL (6 h): 0.02 mg/dL
- TC (6 h): 75.6 mg/dL
- TG (6 h): 62.6 mg/dL
- TP (6 h): 5.3 g/dL
- gamma-GTP (6 h): 1 IU/L
- TERMINAL_BW (9 h): 200.8 g
- APTT (9 h): 22.6 s
- Bas (9 h): 0%
- Eos (9 h): 1%
- Fbg (9 h): 314.5 mg/dL
- Hb (9 h): 12.9 g/dL
- Ht (9 h): 37.8%
- Lym (9 h): 75.5%
- MCH (9 h): 21.4 pg
- MCHC (9 h): 34.3%
- MCV (9 h): 62.6 fL
- Mono (9 h): 2%
- Neu (9 h): 20.5%
- PT (9 h): 15.7 s
- Plat (9 h): 110.7 x10_4/uL
- RBC (9 h): 605.5 x10_4/ul
- Ret (9 h): 8.4%
- WBC (9 h): 86.5 x10_2/uL
- KIDNEY_L (9 h): 0.9 g
- KIDNEY_R (9 h): 0.9 g
- KIDNEY_TOTAL (9 h): 1.9 g
- LIVER (9 h): 8.5 g
- A/G (9 h): 1.2
- ALP (9 h): 1450.5 IU/L
- ALT (9 h): 41.2 IU/L
- AST (9 h): 76.5 IU/L
- BUN (9 h): 10.5 mg/dL
- CRE (9 h): 0.2 mg/dL
- Ca (9 h): 10.3 mg/dL
- Cl (9 h): 107 meq/L
- DBIL (9 h): 0.005 mg/dL
- GLC (9 h): 178.2 mg/dL
- IP (9 h): 9.8 mg/dL
- K (9 h): 4 meq/L
- LDH (9 h): 172.2 IU/L
- Na (9 h): 141.8 meq/L
- PL (9 h): 135 mg/dL
- RALB (9 h): 3 g/dL
- TBIL (9 h): 0.0175 mg/dL
- TC (9 h): 81.8 mg/dL
- TG (9 h): 39.8 mg/dL
- TP (9 h): 5.5 g/dL
- gamma-GTP (9 h): 1.2 IU/L
- TERMINAL_BW (24 h): 216 g
- APTT (24 h): 21.7 s
- Bas (24 h): 0%
- Eos (24 h): 1%
- Fbg (24 h): 333.2 mg/dL
- Hb (24 h): 13.5 g/dL
- Ht (24 h): 39.1%
- Lym (24 h): 77.8%
- MCH (24 h): 21.4 pg
- MCHC (24 h): 34.4%
- MCV (24 h): 62.3 fL
- Mono (24 h): 3%
- Neu (24 h): 17.6%
- PT (24 h): 16.7 s
- Plat (24 h): 124 x10_4/uL
- RBC (24 h): 627 x10_4/ul
- Ret (24 h): 7.8%
- WBC (24 h): 113.7 x10_2/uL
- KIDNEY_L (24 h): 1 g
- KIDNEY_R (24 h): 1 g
- KIDNEY_TOTAL (24 h): 1.9 g
- LIVER (24 h): 10.3 g
- A/G (24 h): 1.2
- ALP (24 h): 1519.2 IU/L
- ALT (24 h): 39.8 IU/L
- AST (24 h): 76.8 IU/L
- BUN (24 h): 17.2 mg/dL
- CRE (24 h): 0.2 mg/dL
- Ca (24 h): 10.9 mg/dL
- Cl (24 h): 107.6 meq/L
- DBIL (24 h): 0.002 mg/dL
- GLC (24 h): 179.6 mg/dL
- IP (24 h): 7.6 mg/dL
- K (24 h): 4.4 meq/L
- LDH (24 h): 287.6 IU/L
- Na (24 h): 142.6 meq/L
- PL (24 h): 152.8 mg/dL
- RALB (24 h): 3.1 g/dL
- TBIL (24 h): 0 mg/dL
- TC (24 h): 82.2 mg/dL
- TG (24 h): 84.4 mg/dL
- TP (24 h): 5.6 g/dL
- gamma-GTP (24 h): 1.8 IU/L
